{"source": "patent US20250108038A1", "about": "(priority 2023, published 2025)", "key": {"[1]": {"type": "physicochemical", "method": "All conditions and stock preparation procedures were identical to the conditions applied in the transporter assays (Table 74, Table 75 and Table 76). […] A follow-up assay was carried out at 7 concentrations in order to correct the nominal concentrations for the IC50 calculations (Table 78). Where NSB was observed (>20% loss) the assay concentrations were corrected according to the result of the respective NSB assay.\nAll conditions and stock preparation procedures were identical to the conditions applied in the transporter assays.\nSamples (1.5×C0 or Total) were immediately taken after mixing to determine the total initial concentrations. The assay mixes were pre-incubated for 15 minutes at 37° C. and at 32° C. in case of BCRP and MDR1. After the pre-incubation step the assay mixes were 1.5-times diluted with (pre-warmed) transport buffer reaching the final nominal concentrations of the compounds in the VT assay and then were further incubated at 37° C. or 32° C. for BCRP and MDR1 and sampled in the end of incubation (timc).\nThe aqueous buffer was mixed, and samples (C0 or Total) were immediately taken for determining the total initial concentrations. The helper plate was pre-warmed for 15 minutes at 37° C. The pre-warmed aliquots of the aqueous buffers with the test articles (50 μL) were transferred from the helper plate into the wells of another 96-well plate (assay plate) and incubated for 30 minutes (pre-incubation) then removed from the wells. Thereafter the same wells of the assay plate were dosed again with other aliquots of the aqueous buffers with the test articles and were further incubated in the assay plate at 37° C. and finally sampled (tinc)."}, "[2]": {"biological_target": "MDR1 (Homo sapiens, UniProt P08183)", "sequence (P08183 whole entry)": "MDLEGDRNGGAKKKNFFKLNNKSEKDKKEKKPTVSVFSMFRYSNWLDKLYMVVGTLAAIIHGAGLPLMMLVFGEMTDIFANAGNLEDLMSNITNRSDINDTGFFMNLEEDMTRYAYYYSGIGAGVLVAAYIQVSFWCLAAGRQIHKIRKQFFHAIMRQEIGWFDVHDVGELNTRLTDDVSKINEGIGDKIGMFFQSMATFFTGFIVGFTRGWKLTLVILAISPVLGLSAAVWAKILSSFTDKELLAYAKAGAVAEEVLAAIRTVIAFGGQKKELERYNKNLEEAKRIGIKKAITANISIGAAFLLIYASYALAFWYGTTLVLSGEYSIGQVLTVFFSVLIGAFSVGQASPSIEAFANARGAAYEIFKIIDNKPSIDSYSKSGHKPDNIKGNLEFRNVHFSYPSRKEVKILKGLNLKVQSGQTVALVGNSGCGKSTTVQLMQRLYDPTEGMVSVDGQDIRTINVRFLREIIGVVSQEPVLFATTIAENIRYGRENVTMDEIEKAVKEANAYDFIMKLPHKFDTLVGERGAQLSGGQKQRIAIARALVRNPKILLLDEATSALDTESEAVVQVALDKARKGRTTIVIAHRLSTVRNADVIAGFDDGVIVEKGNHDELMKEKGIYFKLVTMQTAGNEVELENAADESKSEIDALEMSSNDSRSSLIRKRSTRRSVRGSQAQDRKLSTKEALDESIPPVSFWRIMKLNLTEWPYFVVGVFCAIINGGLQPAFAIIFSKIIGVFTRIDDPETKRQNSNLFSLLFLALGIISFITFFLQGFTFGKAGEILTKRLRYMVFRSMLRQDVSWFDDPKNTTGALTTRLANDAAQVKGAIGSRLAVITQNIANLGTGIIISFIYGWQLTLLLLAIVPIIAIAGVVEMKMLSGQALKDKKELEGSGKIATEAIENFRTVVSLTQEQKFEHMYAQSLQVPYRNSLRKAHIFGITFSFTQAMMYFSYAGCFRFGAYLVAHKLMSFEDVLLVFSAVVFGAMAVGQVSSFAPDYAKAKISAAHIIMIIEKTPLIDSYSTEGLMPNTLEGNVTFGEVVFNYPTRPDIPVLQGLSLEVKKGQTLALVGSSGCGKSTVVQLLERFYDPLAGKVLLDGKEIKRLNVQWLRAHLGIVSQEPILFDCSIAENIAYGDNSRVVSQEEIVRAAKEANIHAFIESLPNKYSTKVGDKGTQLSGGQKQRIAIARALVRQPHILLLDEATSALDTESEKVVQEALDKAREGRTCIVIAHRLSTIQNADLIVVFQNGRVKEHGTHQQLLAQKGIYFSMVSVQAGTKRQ", "assay": "Vesicular transport inhibition assay, MDR1 (N-methyl quinidine)", "method": "Vesicular transport assays were performed with inside-out membrane vesicles prepared from cells overexpressing human ABC (efflux) transporters. The transporters were expressed by SOLVO Biotechnology in mammalian (HEK293) cells. The mammalian cells were stably transfected with the ABC transporter of interest. The assays were conducted according to the actual SOLVO VT assay protocols (PR-ASY-VT-General Protocol for Vesicular Transport Inhibition Assays).\nThe membrane vesicle suspension was mixed with the ice-cold transport buffer, then the probe substrate solution was added. […] (for BCRP and MDR1). […] Reactions were quenched by the addition of 200 μL of ice-cold washing buffer and immediate filtration via glass fiber filters mounted to a 96-well plate (filter plate). The filters were washed (5×200 μL of ice-cold washing buffer), dried and the amount of substrate inside the filtered vesicles was determined by liquid scintillation counting.\nIncubation with AMP provided background activity values for all data points."}, "[3]": {"test_system": "human 3D intestinal model (EpiIntestinal)", "assay": "Intestinal permeability in the EpiIntestinal model", "type": "in vitro ADME", "conditions": "apical dose 100 μL of 10 mM stock solution, 120 min, 37° C.", "method": "FIG. 2A. Intestinal permeability of Compound I-19. […] Samples were taken from the basolateral compartment at 0, 15, 30, 60, and 120 min. and were analyzed by LCMSMS for presence of parent compound. Values represent mean+SEM of n=3 separate experiments.\nFIG. 2B. Intestinal permeability of Compound I-4 was determined in the human 3D intestinal model (Epilntestinal) from MatTek Corp. Tissues were dosed apically with 100 μL of 10 mM stock solution (4.25 μg) at 0 min. and the tissues were incubated with the test articles at 37° C. for a total of 120 min. Samples were taken from the basolateral compartment at 0, 15, 30, 60, and 120 min. and were analyzed by LCMSMS for presence of parent compound. Values represent mean+SEM of n=3 separate experiments.\nHuman 3D EpiIntestinal tissue model (MatTek, SMI-100, Lot #33921 Kit B) was used to model the intestine and was used for permeability studies. This model offers […] advantages over other permeability testing models such as Caco-2 cells. […]\nThe test articles (100 wL of 100 μM solution, or 4.25 ug) was applied to the apical surface of the EpiIntestinal model. […] Metabolic stability was determined by loss of parent compound using LCMSMS.\nAll data was compiled and organized in Excel. Mean, standard deviation, and standard deviation of the mean were calculated using Excel. […] The permeability coefficient (Papp) was calculated using the following equation: […]"}, "[4]": {"conditions": "HBSS (pH 7.4) uptake buffer, 37° C., nominal 3.00 μM"}, "[5]": {"conditions": "HBSS (pH 7.4) uptake buffer, 37° C., nominal 30.00 μM"}, "[6]": {"conditions": "KH (pH 8.0) uptake buffer, 37° C., nominal 3.00 μM"}, "[7]": {"conditions": "KH (pH 8.0) uptake buffer, 37° C., nominal 30.00 μM"}, "[8]": {"conditions": "Transport buffer with sucrose (pH 7.4), BCRP and MDR1 VT, 32° C., nominal C0 5.00 μM"}, "[9]": {"conditions": "Transport buffer with sucrose (pH 7.4), BCRP and MDR1 VT, 32° C., nominal C0 50.00 μM"}}, "note": "Entries after “also recorded” stand apart in the source; their conditions may differ. Where two headings read alike, the source gives them in different places.", "data": [{"molecule": "OC1(c2ccc(Cl)cc2)c2ccccc2C2=NCCN21", "note": "(stereo not drawn) [Compound A, 5-(4-chlorophenyl)-2,3-dihydroimidazo[1,2-b]isoindol-5-ol, reference compound]", "values": [{"measurement": "Non-specific binding (NSB)", "setting": "[1]; BCRP, BSEP and MDR1 VT inhibition assay setup", "result": "did not show any NSB"}, {"measurement": "Non-specific binding (NSB)", "setting": "[1]; HBSS (pH 7.4) and KH (pH 8.0) uptake assay buffers", "result": "did not show any NSB"}, {"measurement": "Concentration after incubation", "setting": "[1]; [4]", "result": "1.85 ± 0.13", "unit": "µM"}, {"measurement": "Loss of Compound A during the NSB assay", "setting": "[1]; [4]", "result": 14, "unit": "%"}, {"measurement": "Measured dosing concentrations", "setting": "[1]; [4]", "result": "2.16 ± 0.05", "unit": "µM"}, {"measurement": "Concentration after incubation", "setting": "[1]; [5]", "result": "17.66 ± 0.35", "unit": "µM"}, {"measurement": "Loss of Compound A during the NSB assay", "setting": "[1]; [5]", "result": 15, "unit": "%"}, {"measurement": "Measured dosing concentrations", "setting": "[1]; [5]", "result": "20.71 ± 0.67", "unit": "µM"}, {"measurement": "Concentration after incubation", "setting": "[1]; [6]", "result": "1.86 ± 0.06", "unit": "µM"}, {"measurement": "Loss of Compound A during the NSB assay", "setting": "[1]; [6]", "result": 20, "unit": "%"}, {"measurement": "Measured dosing concentrations", "setting": "[1]; [6]", "result": "2.31 ± 0.11", "unit": "µM"}, {"measurement": "Concentration after incubation", "setting": "[1]; [7]", "result": "18.15 ± 0.42", "unit": "µM"}, {"measurement": "Loss of Compound A during the NSB assay", "setting": "[1]; [7]", "result": 18, "unit": "%"}, {"measurement": "Measured dosing concentrations", "setting": "[1]; [7]", "result": "22.13 ± 0.61", "unit": "µM"}, {"measurement": "Concentration after incubation (tinc)", "setting": "[1]; [8]", "result": "6.27 ± 0.69", "unit": "µM"}, {"measurement": "Loss of Compound A during the NSB assay", "setting": "[1]; [8]", "result": 3, "unit": "%"}, {"measurement": "Measured dosing concentrations ([…] C0)", "setting": "[1]; [8]", "result": "9.65 ± 1.52", "unit": "µM"}, {"measurement": "Concentration after incubation (tinc)", "setting": "[1]; [9]", "result": "55.92 ± 2.44", "unit": "µM"}, {"measurement": "Loss of Compound A during the NSB assay", "setting": "[1]; [9]", "result": "−2", "unit": "%"}, {"measurement": "Measured dosing concentrations ([…] C0)", "setting": "[1]; [9]", "result": "82.20 ± 3.76", "unit": "µM"}, {"measurement": "Relative ATP-dependent transport", "setting": "[2]; 5.00 μM nominal", "result": "99.11 ± 9.38 % of control"}, {"measurement": "Relative ATP-dependent transport", "setting": "[2]; 50.00 μM nominal", "result": "97.83 ± 5.19 % of control"}, {"measurement": "maximum inhibition of MDR1-mediated NMQ accumulation", "setting": "[2]; 2-concentration assay, up to 100 μM (Compound A up to 50 μM)", "result": "did not inhibit; also recorded: not an in vitro inhibitor"}, {"measurement": "Maximum % inhibition", "setting": "[2]; MDR1, inside-out membrane vesicles, NMQ (1 μM), NIO: No inhibition observed", "result": "NIO"}, {"measurement": "inhibition at 5 μM", "setting": "[2]; human, Relative inhibition, 5.00 μM nominal", "result": 1, "unit": "%"}, {"measurement": "inhibition at 50 μM", "setting": "[2]; human, Relative inhibition, 50.00 μM nominal", "result": 2, "unit": "%"}]}, {"molecule": "COCCOC1(c2ccc(Cl)cc2)c2ccccc2C2=NCCN21", "note": "(stereo not drawn) [Compound I-4]", "values": [{"measurement": "Papp", "setting": "[3]", "result": 0.155, "unit": "×10⁻⁶ cm/s"}]}]}
